Our source for the IC50 values is article PMC11588130 (Proceedings of the National Academy of Sciences of the …, 2024).

In this test the target is T1, human FXR (cotransfected with RXR) (Homo sapiens, UniProt Q96RI1).
T1 sequence (Q96RI1 1-486): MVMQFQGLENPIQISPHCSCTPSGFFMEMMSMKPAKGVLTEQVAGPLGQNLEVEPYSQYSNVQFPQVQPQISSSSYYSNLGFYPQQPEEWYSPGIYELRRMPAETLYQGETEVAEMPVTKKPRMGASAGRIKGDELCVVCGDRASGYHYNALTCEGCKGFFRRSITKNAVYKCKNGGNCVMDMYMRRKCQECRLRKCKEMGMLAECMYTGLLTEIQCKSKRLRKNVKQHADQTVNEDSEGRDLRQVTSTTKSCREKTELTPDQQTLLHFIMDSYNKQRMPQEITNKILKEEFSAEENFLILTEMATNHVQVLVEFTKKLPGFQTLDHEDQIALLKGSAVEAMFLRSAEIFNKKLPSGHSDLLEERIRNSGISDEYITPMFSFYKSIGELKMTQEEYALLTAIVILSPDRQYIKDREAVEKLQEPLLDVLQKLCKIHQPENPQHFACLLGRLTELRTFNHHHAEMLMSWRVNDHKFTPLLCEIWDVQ
T1 sequence (P19793 1-462 partner): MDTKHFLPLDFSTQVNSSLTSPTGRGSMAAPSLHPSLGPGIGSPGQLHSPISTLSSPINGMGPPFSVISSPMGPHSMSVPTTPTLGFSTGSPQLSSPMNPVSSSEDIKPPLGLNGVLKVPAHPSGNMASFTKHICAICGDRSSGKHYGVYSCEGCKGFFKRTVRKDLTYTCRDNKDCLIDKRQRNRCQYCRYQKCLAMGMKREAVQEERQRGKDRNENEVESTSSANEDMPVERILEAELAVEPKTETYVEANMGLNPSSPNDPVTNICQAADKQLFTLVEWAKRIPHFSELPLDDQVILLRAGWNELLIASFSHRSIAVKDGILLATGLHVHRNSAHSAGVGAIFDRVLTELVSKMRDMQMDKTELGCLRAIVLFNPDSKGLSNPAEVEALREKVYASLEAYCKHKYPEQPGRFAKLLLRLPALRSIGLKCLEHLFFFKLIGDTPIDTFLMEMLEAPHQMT
The test is described as follows: FXRE-luciferase reporter in HEK293. It is filed as cell-based.

`C[C@H](CCC(=O)O)[C@H]1CC[C@H]2[C@@H]3C(=O)C[C@@H]4C[C@H](O)CC[C@]4(C)[C@H]3C[C@H](O)[C@]12C` [7-oxo-DCA] returned a concentration for half-maximal inhibition (IC50) of 13.8 µM.
